Results published in patent publication US11458123B2 (Arvinas, Inc., priority 2016, dated 2022).

What follows are compounds tested on tau protein (assay: Tau protein in vitro degradation assay (Western blot, Tau-13 antibody)). Settings: SK-N-SH cells; 72 hours of incubation; tested at 300 nM, 100 nM, 33 nM and 11 nM; Western blot, Tau-13 antibody.
Format: cell-based, human
Summary of the method: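 SK-N-SH cells, seeded ≥18 h beforehand, were incubated 72 h with tau PROTACs at 1000, 300 and 100 nM or at 300, 100, 33 and 11 nM. Lysates in protease-inhibitor buffer were resolved by SDS-PAGE; tau quantified by Western blot with Tau-13 antibody recognising all human tau forms.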

**Q.** How did the “Degradation activity (tau protein remaining; highest amount of degradation observed at any dosage)” value turn out when Cc1ncsc1-c1ccc(CNC(=O)[C@@H]2C[C@@H](O)CN2C(=O)[C@H](C(C)C)N2Cc3ccccc3C2=O)c(OCCOCCOc2ccc(-c3ccc4c(c3)[nH]c3ccncc34)cn2)c1 [Compound 186, (2S,4R)—N-(2-(2-(2-((5-(5H-pyrido[4,3-b]indol-7-yl)pyridin-2-yl)oxy)ethoxy)ethoxy)-4-(4-methylthiazol-5-yl)benzyl)-4-hydroxy-1-((S)-3-methyl-2-(1-oxoisoindolin-2-yl)butanoyl)pyrrolidine-2-carboxamide] was run?
**A.** B (≤80% and >50% tau protein remaining after 72 hours of incubation with the test compound)

**Q.** With Cn1c2ccncc2c2ccc(-c3ccc(OCCCCCOCCCCCC4CCN(c5ccc6c(c5)C(=O)N(C5CCC(=O)NC5=O)C6=O)CC4)nc3)cc21 (stereo not shown) [Compound 75, 2-(2,6-dioxopiperidin-3-yl)-5-(4-(5-((5-((5-(5-methyl-5H-pyrido[4,3-b]indol-7-yl)pyridin-2-yl)oxy)pentyl)oxy)pentyl)piperidin-1-yl)isoindoline-1,3-dione] as the compound, how does the “Degradation activity* (highest amount of degradation observed at any dosage; tau protein remaining)” value read?
**A.** C (>80% tau protein remaining after 72 hours of incubation with the test compound)

**Q.** How did the “Degradation activity* (highest amount of degradation observed at any dosage; tau protein remaining)” value turn out when Cn1c2ccncc2c2ccc(-c3ccc(O[C@H]4C[C@H](N(C)C5CC6(C5)CN(CCCCCOc5ccc7c(c5)C(=O)N(C5CCC(=O)NC5=O)C7=O)C6)C4)nc3)cc21 (stereo partly shown) [Compound 126, 2-(2,6-dioxopiperidin-3-yl)-5-((5-(6-(methyl((1r,3r)-3-((5-(5-methyl-5H-pyrido[4,3-b]indol-7-yl)pyridin-2-yl)oxy)cyclobutyl)amino)-2-azaspiro[3.3]heptan-2-yl)pentyl)oxy)isoindoline-1,3-dione] was run?
**A.** B (≤80% and >50% tau protein remaining after 72 hours of incubation with the test compound)

**Q.** How did the “Degradation activity* (highest amount of degradation observed at any dosage; tau protein remaining)” value turn out when Cn1c2ccncc2c2ccc(-c3ccc(OCC#CCOCCCCOCCCCOc4ccc5c(c4)C(=O)N(C4CCC(=O)NC4=O)C5=O)nc3)cc21 (stereo not shown) [Compound 90, 2-(2,6-dioxopiperidin-3-yl)-5-(4-(4-((4-((5-(5-methyl-5H-pyrido[4,3-b]indol-7-yl)pyridin-2-yl)oxy)but-2-yn-1-yl)oxy)butoxy)butoxy)isoindoline-1,3-dione] was run?
**A.** A (≤50% tau protein remaining after 72 hours of incubation with the test compound)

**Q.** With Cn1c2ccncc2c2c(F)c(F)c(-c3ccc(O[C@H]4C[C@H](OCCCOCCCOC5CN(c6ccc7c(c6)C(=O)N(C6CCC(=O)NC6=O)C7=O)C5)C4)nc3)cc21 (stereo partly shown) [Compound 176, 5-(3-(3-(3-((1r,3r)-3-((5-(8,9-difluoro-5-methyl-5H-pyrido[4,3-b]indol-7-yl)pyridin-2-yl)oxy)cyclobutoxy)propoxy)propoxy)azetidin-1-yl)-2-(2,6-dioxopiperidin-3-yl)isoindoline-1,3-dione] as the compound, how does the “Degradation activity (tau protein remaining; highest amount of degradation observed at any dosage)” value read?
**A.** C (>80% tau protein remaining after 72 hours of incubation with the test compound)

**Q.** How did the “Degradation activity* (highest amount of degradation observed at any dosage; tau protein remaining)” value turn out when Cc1ncsc1-c1ccc([C@H](C)NC(=O)[C@@H]2C[C@@H](O)CN2C(=O)[C@@H](NC(=O)COCCOCCOCCOCCOCCOCCOc2ccc(-c3ccc4c(c3)[nH]c3ccncc34)cn2)C(C)(C)C)cc1 [Compound 122, (2S,4R)-1-((S)-23-((5-(5H-pyrido[4,3-b]indol-7-yl)pyridin-2-yl)oxy)-2-(tert-butyl)-4-oxo-6,9,12,15,18,21-hexaoxa-3-azatricosanoyl)-4-hydroxy-N—((S)-1-(4-(4-methylthiazol-5-yl)phenyl)ethyl)pyrrolidine-2-carboxamide] was run?
**A.** C (>80% tau protein remaining after 72 hours of incubation with the test compound)

**Q.** With Cn1c2ccncc2c2c(F)c(F)c(-c3ccc(OCCOCCOCCOCCOCCOc4ccc5c(c4)C(=O)N(C4CCC(=O)NC4=O)C5=O)nc3)cc21 (stereo not shown) [Compound 112, 5-((14-((5-(8,9-difluoro-5-methyl-5H-pyrido[4,3-b]indol-7-yl)pyridin-2-yl)oxy)-3,6,9,12-tetraoxatetradecyl)oxy)-2-(2,6-dioxopiperidin-3-yl)isoindoline-1,3-dione] as the compound, how does the “Degradation activity* (highest amount of degradation observed at any dosage; tau protein remaining)” value read?
**A.** A (≤50% tau protein remaining after 72 hours of incubation with the test compound)

**Q.** For Cn1c2ccncc2c2ccc(-c3cnc(OCCOCCOCCOCCOCCOc4ccc5c(c4)C(=O)N(C4CCC(=O)NC4=O)C5=O)cc3C(F)(F)F)cc21 (stereo not shown) [Compound 69, 2-(2,6-dioxopiperidin-3-yl)-5-((14-((5-(5-methyl-5H-pyrido[4,3-b]indol-7-yl)-4-(trifluoromethyl)pyridin-2-yl)oxy)-3,6,9,12-tetraoxatetradecyl)oxy)isoindoline-1,3-dione], which “Degradation activity* (highest amount of degradation observed at any dosage; tau protein remaining)” value is on record?
**A.** A (≤50% tau protein remaining after 72 hours of incubation with the test compound)

**Q.** How did the “Degradation activity* (highest amount of degradation observed at any dosage; tau protein remaining)” value turn out when O=C1CCC(N2C(=O)c3ccc(OCCCCCOC4CCN(C(=O)[C@H]5C[C@@H](Oc6ccc(-c7ccc8c(c7)[nH]c7ccncc78)cn6)C5)CC4)cc3C2=O)C(=O)N1 (stereo partly shown) [Compound 166, 5-((5-((1-((1r,3r)-3-((5-(5H-pyrido[4,3-b]indol-7-yl)pyridin-2-yl)oxy)cyclobutane-1-carbonyl)piperidin-4-yl)oxy)pentyl)oxy)-2-(2,6-dioxopiperidin-3-yl)isoindoline-1,3-dione] was run?
**A.** C (>80% tau protein remaining after 72 hours of incubation with the test compound)

**Q.** For Cn1c2ccncc2c2ccc(-c3cnc(OC4CCN(CCCOCCCOC5CN(c6ccc7c(c6)C(=O)N(C6CCC(=O)NC6=O)C7=O)C5)CC4)c(C(F)(F)F)c3)cc21 (stereo not shown) [Compound 130, 2-(2,6-dioxopiperidin-3-yl)-5-(3-(3-(3-(4-((5-(5-methyl-5H-pyrido[4,3-b]indol-7-yl)-3-(trifluoromethyl)pyridin-2-yl)oxy)piperidin-1-yl)propoxy)propoxy)azetidin-1-yl)isoindoline-1,3-dione], which “Degradation activity* (highest amount of degradation observed at any dosage; tau protein remaining)” value is on record?
**A.** B (≤80% and >50% tau protein remaining after 72 hours of incubation with the test compound)

**Q.** Which “Degradation activity (tau protein remaining; highest amount of degradation observed at any dosage)” value does the source give for Cc1ncsc1-c1ccc(CNC(=O)[C@@H]2C[C@@H](O)CN2C(=O)[C@H](C(C)C)N2Cc3ccccc3C2=O)c(OCCOCCOCCOc2ccc(-c3ccc4c(c3)[nH]c3ccncc34)cn2)c1 [Compound 187, (2S,4R)—N-(2-(2-(2-(2-((5-(5H-pyrido[4,3-b]indol-7-yl)pyridin-2-yl)oxy)ethoxy)ethoxy)ethoxy)-4-(4-methylthiazol-5-yl)benzyl)-4-hydroxy-1-((S)-3-methyl-2-(1-oxoisoindolin-2-yl)butanoyl)pyrrolidine-2-carboxamide] here?
**A.** C (>80% tau protein remaining after 72 hours of incubation with the test compound)

**Q.** For Cn1c2ccncc2c2ccc(-c3ccc(N4CC(OCCCCCOCCCCCOc5ccc6c(c5)C(=O)N(C5CCC(=O)NC5=O)C6=O)C4)nc3)cc21 (stereo not shown) [Compound 115, 2-(2,6-dioxopiperidin-3-yl)-5-((5-((5-((1-(5-(5-methyl-5H-pyrido[4,3-b]indol-7-yl)pyridin-2-yl)azetidin-3-yl)oxy)pentyl)oxy)pentyl)oxy)isoindoline-1,3-dione], which “Degradation activity* (highest amount of degradation observed at any dosage; tau protein remaining)” value is on record?
**A.** C (>80% tau protein remaining after 72 hours of incubation with the test compound)

**Q.** With O=C1CCC(N2C(=O)c3ccc(OCCOCCOCCOCCOCCOc4ccc(-c5ccn6c(n5)nc5ccccc56)cn4)cc3C2=O)C(=O)N1 (stereo not shown) [Compound 207, 5-((14-((5-(benzo[4,5]imidazo[1,2-a]pyrimidin-2-yl)pyridin-2-yl)oxy)-3,6,9,12-tetraoxatetradecyl)oxy)-2-(2,6-dioxopiperidin-3-yl)isoindoline-1,3-dione] as the compound, how does the “Degradation activity (tau protein remaining; highest amount of degradation observed at any dosage)” value read?
**A.** B (≤80% and >50% tau protein remaining after 72 hours of incubation with the test compound)

**Q.** Which “Degradation activity* (highest amount of degradation observed at any dosage; tau protein remaining)” value does the source give for Cn1c2ccncc2c2ccc(-c3ccc(O[C@H]4C[C@H](N(C)C5CC6(C5)CN(C(=O)CCCCOc5ccc7c(c5)C(=O)N(C5CCC(=O)NC5=O)C7=O)C6)C4)nc3)cc21 (stereo partly shown) [Compound 137, 2-(2,6-dioxopiperidin-3-yl)-5-((5-(6-(methyl((1r,3r)-3-((5-(5-methyl-5H-pyrido[4,3-b]indol-7-yl)pyridin-2-yl)oxy)cyclobutyl)amino)-2-azaspiro[3.3]heptan-2-yl)-5-oxopentyl)oxy)isoindoline-1,3-dione] here?
**A.** C (>80% tau protein remaining after 72 hours of incubation with the test compound)

Same assay, conditions: SK-N-SH cells; 72 hours of incubation; tested at 1000 nM, 300 nM and 100 nM

**Q.** Cc1ncoc1-c1ccc([C@H](C)NC(=O)[C@@H]2C[C@@H](O)CN2C(=O)[C@@H](NC(=O)COCCOCCOCCOCC(=O)N2CCN(c3ccn4c(n3)nc3ccccc34)CC2)C(C)(C)C)cc1 [Compound 22, (2S,4R)-1-((S)-17-(4-(benzo[4,5]imidazo[1,2-a]pyrimidin-2-yl)piperazin-1-yl)-2-(tert-butyl)-4,17-dioxo-6,9,12,15-tetraoxa-3-azaheptadecanoyl)-4-hydroxy-N—((S)-1-(4-(4-methyloxazol-5-yl)phenyl)ethyl)pyrrolidine-2-carboxamide] was tested. Which “Activity* (highest amount of degradation observed at any dosage, as tau protein remaining)” value did it give?
**A.** C (>80% tau protein remaining after 72 hours of incubation with the test compound)

**Q.** Cc1ncsc1-c1ccc(CNC(=O)[C@@H]2C[C@@H](O)CN2C(=O)[C@@H](NC(=O)COCCOCCOc2ccc3nc(-c4ccc(N(C)C)cc4)ccc3c2)C(C)(C)C)cc1 [Compound 27, (2S,4R)-1-((S)-2-(2-(2-(2-(2-(4-(dimethylamino)phenyl)quinolin-6-yloxy)ethoxy)ethoxy)acetamido)-3,3-dimethylbutanoyl)-4-hydroxy-N-(4-(4-methylthiazol-5-yl)benzyl)pyrrolidine-2-carboxamide] was tested. Which “Activity* (highest amount of degradation observed at any dosage, as tau protein remaining)” value did it give?
**A.** C (>80% tau protein remaining after 72 hours of incubation with the test compound)
